Experimental data from US11090308B2, “Methods of treating liver disorders or lipid disorders with a THR-beta agonist” (Madrigal Pharmaceuticals, Inc., priority 2016, dated 2021).
Like-named read-outs stand apart in the source and are kept apart here.

Tests used:
Format in all cases: in vitro ADME
CYP2C8 = target: T1, CYP2C8 (Homo sapiens, UniProt P10632); experiment: In vitro Cytochrome P-450 enzyme assay, CYP2C8; conditions: for IC50: read-out: Inhibitor of: CYP2C8, IC50
T1 sequence (P10632 1-490): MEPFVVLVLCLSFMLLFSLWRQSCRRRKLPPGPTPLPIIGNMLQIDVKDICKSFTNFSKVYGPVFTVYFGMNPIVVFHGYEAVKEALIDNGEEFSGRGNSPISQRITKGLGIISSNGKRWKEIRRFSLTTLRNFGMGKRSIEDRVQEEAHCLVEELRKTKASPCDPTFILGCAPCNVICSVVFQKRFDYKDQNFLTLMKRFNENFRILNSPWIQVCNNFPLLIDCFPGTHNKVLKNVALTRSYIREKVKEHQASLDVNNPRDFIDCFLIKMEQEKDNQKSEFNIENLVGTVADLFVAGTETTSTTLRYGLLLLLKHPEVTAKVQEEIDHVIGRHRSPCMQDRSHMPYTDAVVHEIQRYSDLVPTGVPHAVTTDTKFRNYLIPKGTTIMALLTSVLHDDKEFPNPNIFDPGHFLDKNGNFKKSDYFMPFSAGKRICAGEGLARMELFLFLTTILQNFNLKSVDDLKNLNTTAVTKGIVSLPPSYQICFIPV
Text: (§1) The following studies have been conducted: (a) in vitro drug protein binding, transporter (organic anion transporting polypeptide [OATP], P-glycoprotein [P-gp], breast cancer-related protein [BCRP], and multiple drug resistance protein 1 [MDR1]), and cytochrome P-450 enzyme assays to investigate absorption, distribution, and excretion; (b) in vivo MGL-3196 rat and dog oral PK and bioavailability studies; (c) in vivo ^14C-MGL-3196 rat and dog oral pharmacokinetics, absorption, excretion, and tissue distribution by quantitative whole-body autoradiography (QWBA) studies; and (d) liver disposition of MGL-3196 using an in vitro sandwiched hepatocyte model system (B-CLEAR® technology) in dog (SCDH) and human (SCHH) hepatocytes.

CYP2D6 = CYP2D6 (Homo sapiens, UniProt P10635); experiment: In vitro Cytochrome P-450 enzyme assay, CYP2D6
Text: as §1

[1] = system: sandwich-cultured human hepatocytes (SCHH); experiment: Hepatobiliary disposition in sandwich-cultured human hepatocytes (SCHH)
Procedure: Qualyst Transporter Solutions evaluated the hepatic uptake of MGL-3196 in sandwich cultured human hypetocytes (SCHH). MGL-3196 was evaluated at 30 μM after a 20-minute incubation (based on a pilot uptake study) in the presence of a physiologic concentration of bovine serum albumin (BSA, ˜4%). The experiment was performed in a 24-well format using 1 lot of Transporter Certified™ human hepatocytes (N=1). Each test condition was performed in 3 wells to provide triplicate data. Sample preparation and LC/MS/MS analysis of cell lysate to determine concentrations of MGL-3196 was performed at QTS according to analytical assay methodology and analytical standards supplied by Madrigal Pharmaceuticals. The following parameter for test article were determined: (a) total accumulation (hepatic uptake), (b) cellular accumulation (intracellular concentration), (c) biliary excretion index (hepatic efflux), (d) Kp value (hepatic accumulation), (e) in vitro biliary clearance (predictive of in vivo biliary clearance), and (f) media accumulation (post incubation supernatant).
(§2) Parameters determined: • Bile Accumulation=Total Accumulationplus(+)Buffer−Cellular AccumulationMinus(−)Buffer
(§3) [formula] • AUC=(Incubation Time)*(Analyte ConcentrationMedia) • In vitro biliary clearance:
(§4) [formula] • (Kp ratio reflects the extent of MGL-3196 accumulation in hepatocyte to the total MGL-3196 concentration in the buffer, outside of the hepatocyte).
(§5) MGL-3196 and its metabolite, MGL-3196-M1 (M1), were evaluated in sandwich-cultured human hepatocytes (SCHH) to evaluate the effects of temperature and concentration on total accumulation. Incubations were performed in presence of 4% bovine serum albumin (BSA) for 20 minutes at 37° C. and 4° C. across multiple concentrations (3, 10, 30, and 100 μM). Following the hepatic accumulation study, a species comparison of the hepatobiliary disposition of MGL-3196 (30 μM) and its metabolite, M1, was evaluated in SCHH and sandwich-cultured dog hepatocytes (SCDH) in the presence of 4% BSA.

OATP1B1 = target: T2, OATP1B1 (Homo sapiens, UniProt Q9Y6L6); experiment: In vitro drug transporter assay, OATP1B1
T2 sequence (Q9Y6L6 1-691): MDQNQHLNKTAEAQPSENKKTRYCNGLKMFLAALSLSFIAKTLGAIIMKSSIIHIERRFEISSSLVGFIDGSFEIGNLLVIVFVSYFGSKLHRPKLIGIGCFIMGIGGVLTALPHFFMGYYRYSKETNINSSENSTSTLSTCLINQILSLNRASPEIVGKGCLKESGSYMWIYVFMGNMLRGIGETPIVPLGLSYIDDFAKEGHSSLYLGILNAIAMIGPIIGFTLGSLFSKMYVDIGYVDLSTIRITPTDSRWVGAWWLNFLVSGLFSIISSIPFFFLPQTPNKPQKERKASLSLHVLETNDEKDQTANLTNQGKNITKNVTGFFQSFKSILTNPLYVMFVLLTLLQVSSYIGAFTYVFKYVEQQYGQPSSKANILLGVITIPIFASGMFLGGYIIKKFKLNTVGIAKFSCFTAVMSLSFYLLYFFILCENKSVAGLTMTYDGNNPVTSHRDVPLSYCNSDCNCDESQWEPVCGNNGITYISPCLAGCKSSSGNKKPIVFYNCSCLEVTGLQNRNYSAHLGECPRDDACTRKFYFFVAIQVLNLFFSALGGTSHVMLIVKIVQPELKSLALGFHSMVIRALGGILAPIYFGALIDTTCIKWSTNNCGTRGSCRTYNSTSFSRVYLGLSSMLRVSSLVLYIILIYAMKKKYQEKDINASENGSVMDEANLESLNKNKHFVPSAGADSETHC
Text: as §1

[2] = system: sandwich-cultured dog hepatocytes (SCDH); experiment: Hepatobiliary disposition in sandwich-cultured dog hepatocytes (SCDH)
Text: as §1, §2, §3, §4, §5

CYP2C9 = CYP2C9 (Homo sapiens, UniProt P11712); experiment: In vitro Cytochrome P-450 enzyme assay, CYP2C9; conditions: for IC50: read-out: Inhibitor of: CYP2C9, IC50
[3] = system: sandwich-cultured human hepatocytes (SCHH); experiment: Effects of temperature and concentration on total accumulation in SCHH
Procedure: as §5

[4] = 20 min exposure to MGL-3196 30 μM, 4% BSA
[5] = SCDH, 20 min exposure to MGL-3196 30 μM, 4% BSA

CYP2C9, sequence (P11712 whole entry): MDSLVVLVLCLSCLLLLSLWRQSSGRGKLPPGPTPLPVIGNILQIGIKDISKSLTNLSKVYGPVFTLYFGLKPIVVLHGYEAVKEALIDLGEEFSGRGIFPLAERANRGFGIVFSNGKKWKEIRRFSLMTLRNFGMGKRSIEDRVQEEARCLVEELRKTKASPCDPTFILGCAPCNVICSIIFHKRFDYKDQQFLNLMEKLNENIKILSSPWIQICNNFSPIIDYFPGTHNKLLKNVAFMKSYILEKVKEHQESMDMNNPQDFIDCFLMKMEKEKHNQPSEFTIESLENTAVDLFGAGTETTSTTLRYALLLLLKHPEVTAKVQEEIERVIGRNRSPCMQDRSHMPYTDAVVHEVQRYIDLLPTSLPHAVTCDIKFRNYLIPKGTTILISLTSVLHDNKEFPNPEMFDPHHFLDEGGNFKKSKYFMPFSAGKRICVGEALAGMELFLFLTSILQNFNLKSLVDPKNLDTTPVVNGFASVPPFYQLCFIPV
CYP2D6, sequence (P10635 whole entry): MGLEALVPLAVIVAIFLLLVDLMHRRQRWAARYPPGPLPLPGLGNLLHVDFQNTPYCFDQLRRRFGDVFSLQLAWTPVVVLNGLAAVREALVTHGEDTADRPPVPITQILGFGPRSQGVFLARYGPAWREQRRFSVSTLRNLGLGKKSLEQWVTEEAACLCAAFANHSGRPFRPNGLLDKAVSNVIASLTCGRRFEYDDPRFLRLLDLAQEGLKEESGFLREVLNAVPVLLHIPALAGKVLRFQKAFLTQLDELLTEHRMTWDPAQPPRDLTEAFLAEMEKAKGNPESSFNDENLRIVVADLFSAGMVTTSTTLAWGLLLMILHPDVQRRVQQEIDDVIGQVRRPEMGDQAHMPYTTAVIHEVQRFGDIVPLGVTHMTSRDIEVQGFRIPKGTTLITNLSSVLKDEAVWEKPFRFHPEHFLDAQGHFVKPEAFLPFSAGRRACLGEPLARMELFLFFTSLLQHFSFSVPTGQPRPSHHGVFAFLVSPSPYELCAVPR

CC(C)c1cc(Oc2c(Cl)cc(-n3nc(C#N)c(=O)[nH]c3=O)cc2Cl)n[nH]c1=O [MGL-3196, 2-(3,5-dichloro-4-((5-isopropyl-6-oxo-1,6-dihydropyridazin-3-yl)oxy)phenyl)-3,5-dioxo-2,3,4,5-tetrahydro-1,2,4-triazine-6-carbonitrile]
Substrate for: CYP2C8 (CYP2C8): CYP2C8;
IC50 (CYP2C8): 0.9 µM
Inhibitor of: CYP2D6 (CYP2D6): not an inhibitor
BEI (Biliary Excretion Index) [1, 4]: 33.7%
Bile Acc. [1, 4]: 293 pmol/mg
Cellular Acc. [1, 4]: 570 pmol/mg
ClBiliary (in vitro biliary clearance) [1, 4]: 1.45 mL/min/kg
ICC (intracellular concentration) [1, 4]: 74.2 µM
Kp [1, 4]: 2.47 Ratio
Total Acc. [1, 4]: 863 pmol/mg
Substrate for: OATP1B1 (OATP1B1): OATP1B1;
Inhibitor of: OATP1B1, % inhibition (OATP1B1; @ 10 uM Pravastatin): 29%
IC50 (OATP1B1; read-out: Inhibitor of: OATP1B1, IC50): 3.7 µM
Total accumulation in SCDH lower than in SCHH ([2]; 30 μM, 20-minute exposure): ~81%
biliary clearance estimates lower in dog than human hepatocytes ([2]; SCDH vs SCHH): ~46%
BEI (Biliary Excretion Index) [2, 5]: 48.7%
Bile Acc. [2, 5]: 86.2 pmol/mg
Cellular Acc. [2, 5]: 80.3 pmol/mg
ClBiliary (in vitro biliary clearance) [2, 5]: 0.784 mL/min/kg
ICC (intracellular concentration) [2, 5]: 10.4 µM
Kp [2, 5]: 0.348 Ratio
Total Acc. [2, 5]: 167 pmol/mg
Substrate for: CYP2C9 (CYP2C9): CYP2C9;
IC50 (CYP2C9): 22 µM
share of total accumulation (hepatocytes+bile) mediated by an active uptake process (temperature-dependent) ([3]; 37° C. vs 4° C., 20 minutes, 4% BSA, 3, 10, 30, 100 μM): ≥ 72.8%

CC(CO)c1cc(Oc2c(Cl)cc(-n3nc(C#N)c(=O)[nH]c3=O)cc2Cl)n[nH]c1=O (stereo not drawn) [MGL-3623]
Substrate for: CYP2C8 (CYP2C8): CYP 2C8
IC50 (CYP2C8): 6.1 µM
IC50 (CYP2D6; read-out: Inhibitor of: CYP2D6, IC50): > 50 µM
BEI (Biliary Excretion Index) [1, 4]: 30.4%
Bile Acc. [1, 4]: 1.78 pmol/mg
Cellular Acc. [1, 4]: 4.01 pmol/mg
ICC (intracellular concentration) [1, 4]: 0.521 µM
PIS (post incubation supernatant, cell culture media) [1, 4]: BLQ
Total Acc. [1, 4]: 5.79 pmol/mg
accumulation as % of parent's total accumulation ([1]; MGL-3196 30 μM, 20 minutes): 0.67%
Substrate for: OATP1B1 (OATP1B1): OATP1B1
inhibition at 10 µM (OATP1B1; @10 uM, insignificant, read-out: Inhibitor of: OATP1B1, % inhib): 23%
Cellular Acc. [2, 5]: BLQ
PIS (post incubation supernatant, cell culture media) [2, 5]: BLQ
Total Acc. [2, 5]: BLQ
IC50 (CYP2C9; range given jointly for CYP2B6, CYP2C9, CYP2C19, weak): 24 to 35 µM
reduction of accumulation in 4° C. incubations ([3]; across all MGL-3196 exposure levels examined): ≥ 65%
